# Measurements taken from patent EP2216022A1, “USE OF C[…] THE TREATMENT OF BASAL CELL CARCINOMA AND OTHER TUMORS” (Tas, Sinan, priority 2001, dated 2002).
# Key:
# Format in all cases: in vivo, patient
# [1] = test system: normal epidermis and hair follicles; details: Normal skin exposed to the same schedule and doses of cyclopamine as the BCC's; undifferentiated basal layer cells preserved
# From the text: (§1) These regions are seen to contain residual BCC`s displaying large cysts in the tumor center and smaller cystic structures of various sizes located among the residual BCC cells towards the periphery. • Fig 2D and Fig 2E show 1000X magnified appearances from the interior and palisading peripheral regions of these residual BCC's and show the presence of massive apoptotic activity among the residual BCC cells regardless of the tumor region.
# 4B and 4C Higher power views from different areas of cyclopamine-treated epidermis showing Ber-Ep4 labelling of the basal cells. […] Original magnification is 400X for 4A and 1000X for 4B, 4C, 4D, immunohistochemical detection procedure is the same as in Fig 3A, 3B; labelling is indicated by brown coloring.
# BCC cells [2] = experiment: Ulex Europaeus lectin type 1 labelling (differentiation marker) of treated BCC's; details: Residual cells of cyclopamine-treated BCC's; lectin normally does not label BCC's; topical cream 18 mM cyclopamine
# From the text: as §1
# Ber-Ep4 is a known differentiation marker that stains the BCC cells as well as the undifferentiated cells of the normal epidermis basal layer and of hair follicles but not the differentiated upper layer cells of normal epidermis. […] 3D and 3E : Decreased expression of p53 as detected by the monoclonal antibody DO-7 in cyclopamine-treated BCC's (3D) in comparison to the placebo-treated BCC's (3E). Expression of p53 is known to decrease upon differentiation of the epidermal basal cells and upon differentiation of cultured keratinocytes. It is also well known that the amount of p53, detectable by DO-7, increases in cells when they are exposed to DNA-damaging agents. […] Original magnifications are 400X for 3A, 3B, 3D, 3E, 1000X for 3C and 100X for 3F, 3G. All immunohistochemical labellings are with peroxidase-conjugated streptavidin binding to biotinylated secondary antibody; labelling is Indicated by the brown-colored staging. […]
# BCC cells [3] = experiment: Immunohistochemical Ber-Ep4 labelling (differentiation marker) of treated BCC's; details: topical cream 18 mM cyclopamine, four times per day, excised on fifth and sixth days, means ± standard deviations, p < 0.001 vs placebo
# From the text: as §1
# The loss of translucency in the cyclopamine-treated BCC's raises the intriguing possibility of differentiation of BCC's under the influence of cyclopamine. This possibility, which can be tested by immunohistochemical analyses of the BCC's, is found to be the case in this invention. In normal epidermis, differentiation of basal tayer cells to the upper layer cells is accompanied by a loss of labelling with the monoclonal antibody Ber-Ep4. Ber-Ep4 labels also the BCC cells and is a known marker for these neoplasms.
# Ber-Ep4 is a known differentiation marker that stains the BCC cells as well as the undifferentiated cells of the normal epidermis basal layer and of hair follicles but not the differentiated upper layer cells of normal epidermis. […] 3D and 3E : Decreased expression of p53 as detected by the monoclonal antibody DO-7 in cyclopamine-treated BCC's (3D) in comparison to the placebo-treated BCC's (3E). Expression of p53 is known to decrease upon differentiation of the epidermal basal cells and upon differentiation of cultured keratinocytes. It is also well known that the amount of p53, detectable by DO-7, increases in cells when they are exposed to DNA-damaging agents. […] Original magnifications are 400X for 3A, 3B, 3D, 3E, 1000X for 3C and 100X for 3F, 3G. All immunohistochemical labellings are with peroxidase-conjugated streptavidin binding to biotinylated secondary antibody; labelling is Indicated by the brown-colored staging. Sections shown in 3F and 3G are stained with Periodic Acid-Schiff and Alcian blue.
# p53 = experiment: Immunohistochemical DO-7 labelling (p53 expression) of treated BCC's; details: topical cream 18 mM cyclopamine; for % Of Cells Labelled With DO-7: four times per day, excised on fifth and sixth days, means ± standard deviations, p < 0.001 vs placebo
# From the text: as §1
# The p53 is a master regulator of the cellular response to DNA-damage. Amount of this protein is known to increase in the cell nucleus following exposure of cells to genotoxic agents. When the DNA-damage is increased beyond a threshold, p53 serves for the apoptotic death of cells. Radiation therapy of cancer and the genotoxic cancer chemotherapeutics that are currently common, act largely by this mechanism, i.e. by causation of apoptosis secondary to the damaging of DNA. The monoclonal antibody DO-7 can bind both normal and missense mutant (i.e., nonfunctional) forms of p53 and is known to be capable of detecting the increase of p53 in the cells following exposure to DNA-damaging agents.
# Since expression of p53 is known to decrease in epidermal cells upon differentiation, the decreased DO-7 labelling of the cyclopamine-treated BCC's is likely to be secondary to the cyclopamine-induced differentiation of the BCC cells.
# (§2) Ber-Ep4 is a known differentiation marker that stains the BCC cells as well as the undifferentiated cells of the normal epidermis basal layer and of hair follicles but not the differentiated upper layer cells of normal epidermis. […] 3D and 3E : Decreased expression of p53 as detected by the monoclonal antibody DO-7 in cyclopamine-treated BCC's (3D) in comparison to the placebo-treated BCC's (3E). Expression of p53 is known to decrease upon differentiation of the epidermal basal cells and upon differentiation of cultured keratinocytes. It is also well known that the amount of p53, detectable by DO-7, increases in cells when they are exposed to DNA-damaging agents. […]
# BCC's = experiment: Retraction of treated BCC's from stroma (arrest of proliferation), Periodic Acid-Schiff and Alcian blue sections; details: Cyclopamine-treated but not placebo-treated BCC's; associated with arrest of proliferation; topical cream 18 mM cyclopamine
# From the text: as §1
# Arrest of the proliferation of BCC's is known to be associated with their retraction from stroma. Although retraction from stroma can also be caused artefactually by improper fixation and processing of the tissues, adherence to published technical details ensures avoidance of such artefacts.
# as §2
# BCC cells [4] = experiment: Apoptosis by morphological criteria on hematoxylene-eosine stained sections of excised treated BCC's; details: topical cream 18 mM cyclopamine, 10 ± 2 µl four times per day, excised on fifth and sixth days, means ± standard deviations, at least 16 high-power (1000 X) fields, p < 0.001 vs placebo
# From the text: as §1
# Cells undergoing apoptosis are known to be removed by macrophages and by nearby cells in normal tissues and the quantitation of apoptotic activity by morphological criteria on hematoxylene-eosine stained sections is known to provide an underestimate.
# Fig 2A, 2B, 2C, 2D, 2E, 2F : Microscopic appearences of the cyclopamine- and placebo-treated BCC's, showing the cyclopamine-induced massive apoptotic death and removal of the tumor cells and the disappearence of tumor nodules to leave behind cystic spaces with no tumor cells. Skin areas corresponding to the pre-treatment positions of the BCC's were excised surgically on the fifth and sixth days of cyclopamine exposure with a margin of normal tissue and subjected to conventional fixation, sectioning and hematoxylene-eosine staining for microscopic analyses. 2A : Large cyst in the dermis corresponding to the position of a disappeared tumor nodule showing no residual tumor cells. […]
# [5] = test system: basal cell carcinomas (BCC's); experiment: Topical cyclopamine cream on basal cell carcinomas: clinical regression; details: Two BCC's (nasolabial fold, forehead); topical cream 18 mM cyclopamine, 10 ± 2 µl four times per day; visual disappearance of several tumor areas within less than a week, loss of translucency
# From the text: as §1
# 1C : BCC, located on forehead, prior to tretment.
# [6] = Non-palisading (interior) cells of the BCC's
# [7] = Peripheral palisading cells of the BCC's
compound,measurement,setting,value
CC1=C2C[C@H]3[C@@H](CC=C4C[C@@H](O)CC[C@@]43C)[C@@H]2CC[C@]12O[C@@H]1C[C@H](C)CN[C@H]1[C@H]2C [Cyclopamine],pattern of labelling with Ber-Ep4 of cyclopamine-treated normal epidermis and hair follicle,[1],normal pattern of labelling
same,labelling of the residual cells with Ulex Europaeus lectin type 1,BCC cells [2],heterogenous labelling
same,% Of Cells Labelled With Ber-Ep4,BCC cells [3]; [6],0 ± 0%
same,% Of Cells Labelled With Ber-Ep4,"BCC cells [3]; Non-palisading (interior) cells of the BCC's, listed as cyclopamine",none
same,% Of Cells Labelled With Ber-Ep4,BCC cells [3]; [7],0 ± 0%
same,% Of Cells Labelled With Ber-Ep4,"BCC cells [3]; Peripheral palisading cells of the BCC's, listed as cyclopamine",none
same,DO-7 labelling intensity and the frequency of labelled cells,p53; Cyclopamine-treated BCC's in comparison to placebo-treated BCC's,markedly decreased
same,% Of Cells Labelled With DO-7,p53; [6],5 ± 3%
same,% Of Cells Labelled With DO-7,p53; [7],16 ± 11%
same,retraction of BCC's from stroma,BCC's,consistently retracted from stroma
same,% Of Cells Showing ≥ 2 Morphological Signs Of Apoptosis On H&E Stained Tissue Sections,BCC cells [4]; [6],18 ± 11%
same,% Of Cells Showing ≥ 2 Morphological Signs Of Apoptosis On H&E Stained Tissue Sections,BCC cells [4]; [7],20 ± 8%
same,clinical regressions of the BCC's,[5],rapid clinical regressions
